Consider 2 compounds from PMC4899901, “Sorokiniol: a new enzymes inhibitory metabolite from fungal endophyte Bipolaris sorokiniana LK12” (BMC Microbiology, 2016).

One assay deals with Jack bean Urease (Canavalia ensiformis, UniProt P07374). Put plainly: indophenol urease assay (ammonia production, […] nm). The format is biochemical.
In assay [1] the target is Acetyl Cholinestrase (AChE) (Electrophorus electricus, UniProt O42275). As to the kind of experiment: Ellman assay (acetylthiocholine/DTNB, […] nm) with electric eel AChE. Format: biochemical. Conditions: read-out: EC50 (the source's name) (converted). Background: In Ellman's method for cholinesterases, released thiocholine reacts with DTNB.
Sequence of Acetyl Cholinestrase (AChE) (O42275 24-633): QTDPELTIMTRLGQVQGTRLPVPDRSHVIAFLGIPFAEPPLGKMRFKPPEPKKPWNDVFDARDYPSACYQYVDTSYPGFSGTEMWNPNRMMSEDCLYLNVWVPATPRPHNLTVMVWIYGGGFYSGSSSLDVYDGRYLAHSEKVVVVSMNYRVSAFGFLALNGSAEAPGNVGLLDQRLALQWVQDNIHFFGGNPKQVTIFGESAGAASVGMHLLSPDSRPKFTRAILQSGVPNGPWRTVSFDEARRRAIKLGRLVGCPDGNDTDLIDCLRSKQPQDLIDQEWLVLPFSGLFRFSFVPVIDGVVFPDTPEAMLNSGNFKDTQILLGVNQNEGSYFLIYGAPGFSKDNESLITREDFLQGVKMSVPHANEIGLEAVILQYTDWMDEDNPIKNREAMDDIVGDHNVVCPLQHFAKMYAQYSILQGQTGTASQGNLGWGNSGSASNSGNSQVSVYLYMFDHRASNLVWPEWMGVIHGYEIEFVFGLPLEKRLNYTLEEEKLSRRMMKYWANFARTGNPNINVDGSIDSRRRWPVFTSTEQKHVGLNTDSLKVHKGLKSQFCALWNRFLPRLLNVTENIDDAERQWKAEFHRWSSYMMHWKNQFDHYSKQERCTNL

Sequence of Jack bean Urease (P07374 whole entry, looked up): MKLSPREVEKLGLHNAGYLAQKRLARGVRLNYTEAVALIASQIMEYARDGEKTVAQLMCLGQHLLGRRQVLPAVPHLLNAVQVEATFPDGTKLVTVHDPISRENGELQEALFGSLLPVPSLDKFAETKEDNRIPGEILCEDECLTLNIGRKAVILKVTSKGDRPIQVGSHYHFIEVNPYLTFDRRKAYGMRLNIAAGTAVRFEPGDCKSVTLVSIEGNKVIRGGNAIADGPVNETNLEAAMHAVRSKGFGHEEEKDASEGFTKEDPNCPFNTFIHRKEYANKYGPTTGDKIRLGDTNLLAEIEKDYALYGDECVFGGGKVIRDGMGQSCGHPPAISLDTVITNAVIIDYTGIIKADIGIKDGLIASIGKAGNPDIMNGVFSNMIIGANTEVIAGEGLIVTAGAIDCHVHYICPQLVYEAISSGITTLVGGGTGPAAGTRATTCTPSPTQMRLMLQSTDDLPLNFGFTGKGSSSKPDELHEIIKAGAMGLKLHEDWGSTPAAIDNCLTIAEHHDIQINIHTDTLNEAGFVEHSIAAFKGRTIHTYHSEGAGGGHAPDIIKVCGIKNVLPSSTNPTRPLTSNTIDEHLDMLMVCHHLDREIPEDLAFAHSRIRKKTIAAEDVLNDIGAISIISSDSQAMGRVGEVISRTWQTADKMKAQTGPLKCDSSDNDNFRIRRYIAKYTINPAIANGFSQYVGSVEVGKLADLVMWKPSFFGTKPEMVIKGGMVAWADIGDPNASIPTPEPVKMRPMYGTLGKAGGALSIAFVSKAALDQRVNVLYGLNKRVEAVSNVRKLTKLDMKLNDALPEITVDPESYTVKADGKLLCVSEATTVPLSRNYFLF

Turning to `NC(N)=S` [thiourea], at Jack bean Urease, the “% Inhibition” value was determined as 95 ± 1.50 % Inhibition. As for `CC(C)c1ccc(CCCCCCCCCCCCCCCCCO)cc1` [compound 1, sorokiniol], the IC50 in assay [1] was 9.08 µM.
